Experimental data: PubChem BioAssay (NCI)
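Test compounds were applied to cells in 96-well plates for 48 hours at 5 doses. Definition used: TGI = concentration required for complete inhibition of growth.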

Assays:
Test in all cases: DTP human tumour cell line panel, 48 h
MDA-MB-231 breast = test system: MDA-MB-231 breast
BT-549 breast = test system: BT-549 breast
ACHN renal = test system: ACHN renal
MALME-3M melanoma = test system: MALME-3M melanoma
OVCAR-3 ovarian = test system: OVCAR-3 ovarian
KM12 colon = test system: KM12 colon
K-562 leukemia = test system: K-562 leukemia
HCT-15 colon = test system: HCT-15 colon
MDA-MB-435 = test system: MDA-MB-435
SR leukemia = test system: SR leukemia
MOLT-4 leukemia = test system: MOLT-4 leukemia
786-0 renal = test system: 786-0 renal
SK-MEL-28 melanoma = test system: SK-MEL-28 melanoma
HT29 colon = test system: HT29 colon
SNB-75 CNS = test system: SNB-75 CNS
MCF7 breast = test system: MCF7 breast
NCI/ADR-RES ovarian = test system: NCI/ADR-RES ovarian
SF-295 CNS = test system: SF-295 CNS
SK-OV-3 ovarian = test system: SK-OV-3 ovarian
RPMI-8226 leukemia = test system: RPMI-8226 leukemia
OVCAR-5 ovarian = test system: OVCAR-5 ovarian
HOP-92 NSCLC = test system: HOP-92 NSCLC
HCT-116 colon = test system: HCT-116 colon
CCRF-CEM leukemia = test system: CCRF-CEM leukemia
CAKI-1 renal = test system: CAKI-1 renal
DU-145 prostate = test system: DU-145 prostate
HCC-2998 colon = test system: HCC-2998 colon
UACC-257 melanoma = test system: UACC-257 melanoma
SW-620 colon = test system: SW-620 colon
LOX IMVI melanoma = test system: LOX IMVI melanoma
NCI-H226 lung = test system: NCI-H226 lung
MDA-N = test system: MDA-N
SN12C renal = test system: SN12C renal
SF-539 CNS = test system: SF-539 CNS
NCI-H460 lung = test system: NCI-H460 lung
TK-10 renal = test system: TK-10 renal
COLO 205 colon = test system: COLO 205 colon
NCI-H522 lung = test system: NCI-H522 lung
A549 NSCLC = test system: A549 NSCLC
SK-MEL-2 melanoma = test system: SK-MEL-2 melanoma
SK-MEL-5 melanoma = test system: SK-MEL-5 melanoma
IGROV1 ovarian = test system: IGROV1 ovarian
UACC-62 melanoma = test system: UACC-62 melanoma
SNB-19 CNS = test system: SNB-19 CNS
HOP-62 NSCLC = test system: HOP-62 NSCLC
UO-31 renal = test system: UO-31 renal
PC-3 prostate = test system: PC-3 prostate
SF-268 CNS = test system: SF-268 CNS
NCI-H23 lung = test system: NCI-H23 lung
OVCAR-4 ovarian = test system: OVCAR-4 ovarian
U251 CNS = test system: U251 CNS
HL-60(TB) leukemia = test system: HL-60(TB) leukemia
A498 renal = test system: A498 renal
EKVX NSCLC = test system: EKVX NSCLC
OVCAR-8 ovarian = test system: OVCAR-8 ovarian
T-47D breast = test system: T-47D breast
M14 melanoma = test system: M14 melanoma
HS 578T breast = test system: HS 578T breast

C=C1CC(CN2CCC(=O)NC2=O)(c2ccccc2)OC1=O (stereo not drawn)
TGI (MDA-MB-231 breast): 32.1 µM
TGI (BT-549 breast): 19.9 µM
TGI (ACHN renal): 23.8 µM
TGI (MALME-3M melanoma): 8.78 µM
TGI (OVCAR-3 ovarian): 31.7 µM
TGI (KM12 colon): 46.8 µM
TGI (K-562 leukemia): 10.9 µM
TGI (HCT-15 colon): 18.5 µM
TGI (MDA-MB-435): 23.6 µM
TGI (SR leukemia): 5.26 µM
TGI (MOLT-4 leukemia): 7.9 µM
TGI (786-0 renal): 15.6 µM
TGI (SK-MEL-28 melanoma): 27.3 µM
TGI (HT29 colon): 25.3 µM
TGI (SNB-75 CNS): 32.3 µM
TGI (MCF7 breast): 2.71 µM
TGI (NCI/ADR-RES ovarian): 32.8 µM
TGI (SF-295 CNS): 43 µM
TGI (SK-OV-3 ovarian): 30.4 µM
TGI (RPMI-8226 leukemia): 7.95 µM
TGI (OVCAR-5 ovarian): 29 µM
TGI (HOP-92 NSCLC): 3.07 µM
TGI (HCT-116 colon): 12.2 µM
TGI (CCRF-CEM leukemia): 4.92 µM
TGI (CAKI-1 renal): 7.57 µM
TGI (DU-145 prostate): 30.1 µM
TGI (HCC-2998 colon): 29.7 µM
TGI (UACC-257 melanoma): 30.8 µM
TGI (SW-620 colon): 4.78 µM
TGI (LOX IMVI melanoma): 16.7 µM
TGI (NCI-H226 lung): 34.3 µM
TGI (MDA-N): 26.7 µM
TGI (SN12C renal): 33.4 µM
TGI (SF-539 CNS): 28.4 µM
TGI (NCI-H460 lung): 38.2 µM
TGI (TK-10 renal): 19.1 µM
TGI (COLO 205 colon): 6.25 µM
TGI (NCI-H522 lung): 2.17 µM
TGI (A549 NSCLC): 33 µM
TGI (SK-MEL-2 melanoma): 27.9 µM
TGI (SK-MEL-5 melanoma): 24.8 µM
TGI (IGROV1 ovarian): 20.7 µM
TGI (UACC-62 melanoma): 21.3 µM
TGI (SNB-19 CNS): > 56.2 µM
TGI (HOP-62 NSCLC): 40.3 µM
TGI (UO-31 renal): 32.3 µM
TGI (PC-3 prostate): 30.4 µM
TGI (SF-268 CNS): 50.4 µM
TGI (NCI-H23 lung): 22.5 µM
TGI (OVCAR-4 ovarian): 3.55 µM
TGI (U251 CNS): 32.1 µM
TGI (HL-60(TB) leukemia): 4.04 µM
TGI (A498 renal): 37.6 µM
TGI (EKVX NSCLC): 40 µM
TGI (OVCAR-8 ovarian): 36.7 µM
TGI (T-47D breast): 11.7 µM
TGI (M14 melanoma): 12.8 µM
TGI (HS 578T breast): 34.6 µM
